The target in assay [1] is T1, wt human LRRK2, catalytic site (Homo sapiens, UniProt Q5S007).
T1 construct: wt human LRRK2, catalytic site; purchased ThermoFisher/USA
As to the kind of experiment: TR-FRET LanthaScreen Eu Kinase Binding Assay, LRRK2 wt (Example 72). Conditions: Example 72 text; one statement for LRRK2 (Wt) and LRRK2 (G2019); read-out: IC50, Inhibitory Activity Toward LRRK2 (Wt). The protocol:
(§1) The compounds in Tables 5-6 were tested for their inhibitory effect on a set of kinases according to the following procedures.
(§2) The basic protocol for TR-FRET LanthaScreen Eu Kinase Binding Assay inhibitor studies were performed as follows. LanthaScreen Kinase Binding Assays (ThermoFisher/USA) to evaluate inhibitors were performed by addition of 5 μl of test compound in corresponding DMSO dilutions/5 μl of kinase/antibody mixture, 5 μl of tracer into 384 well small volume plates. After incubation for 1 hour at room temperature, plates were read. Data analysis of emission ratios was according to LanthaScreen Eu Kinase Binding Assay protocol.
(§3) Kinase and assay components were adjusted to final concentrations according to the kit protocol. For LRRK2: 5 nM wt human LRRK2, catalytic site, or G2019S human LRRK2, catalytic site (ThermoFisher/USA), 2 nM Eu-Anti-GST Antibody, 10 nM Kinase Tracer 236 in 1× Kinase Buffer A. For NUAK1: 8 nM wt human NUAK1, full length (ThermoFisher/USA), 2 nM Eu-Anti-His Antibody, 5 nM Kinase Tracer 236 in 1× Kinase Buffer A.
(TR-FRET usually uses a lanthanide donor and a delayed reading to cut background.)

Assay [2] deals with T2, G2019S human LRRK2, catalytic site (Homo sapiens, UniProt Q5S007, G2019S).
T2 construct: G2019S human LRRK2, catalytic site; purchased ThermoFisher/USA
Description: TR-FRET LanthaScreen Eu Kinase Binding Assay, LRRK2 G2019S (Example 72). Conditions: Example 72 text; one statement for LRRK2 (Wt) and LRRK2 (G2019); read-out: IC50, Inhibitory Activity Toward LRRK2 (G2019). The protocol: as §1, §2, §3

Assay [3] has as its target T3, wt human TYK2, catalytic site (Homo sapiens, UniProt P29597).
T3 construct: wt human TYK2, catalytic site; purchased SignalChem/CAN
T3 sequence (P29597 897-1176 limits assumed): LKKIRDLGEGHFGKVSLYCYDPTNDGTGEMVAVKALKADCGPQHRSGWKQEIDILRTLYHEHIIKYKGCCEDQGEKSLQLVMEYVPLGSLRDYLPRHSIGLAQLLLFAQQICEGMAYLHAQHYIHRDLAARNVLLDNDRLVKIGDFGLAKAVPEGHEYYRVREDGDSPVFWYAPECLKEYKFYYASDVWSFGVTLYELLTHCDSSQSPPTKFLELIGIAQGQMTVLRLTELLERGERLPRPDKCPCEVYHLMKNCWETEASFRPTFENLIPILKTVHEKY
As to the kind of experiment: HTRF KinEASE assay, TYK2 (Example 72). The class given is biochemical. Conditions: Example 72 text; read-out: IC50, Inhibitory Activity Toward TYK2. The protocol:
as §1
Basic protocol for HTRF KinEASE assay (Cisbio/FRA) inhibitor studies involved two steps:
Enzymatic step: Addition of 4 μl of test compound in corresponding DMSO dilutions, 4 μl of kinase/substrate mixture, 2 μl of ATP into 384 well small volume plates. Incubation for at least 30 minutes at room temperature.
Detection step: Addition of 5 μl antibody and 5 μl streptavidin-XL665, read plate after 60 minutes. Data analysis of emission ratios according to KinEASE assay protocol.
Kinase and assay components were adjusted to final concentrations according to the kit protocol. For TYK2: 2 nM wt human TYK2, catalytic site (SignalChem/CAN), 1 μM HTRF KinEASE-TK Substrate-biotin, 1 μM ATP in 1× Kinase Buffer

In assay [4] the target is T4, wt human NUAK1, full length (Homo sapiens, UniProt O60285).
T4 construct: 8 nM wt human NUAK1, full length (ThermoFisher/USA); purchased ThermoFisher/USA
T4 sequence (O60285 1-661): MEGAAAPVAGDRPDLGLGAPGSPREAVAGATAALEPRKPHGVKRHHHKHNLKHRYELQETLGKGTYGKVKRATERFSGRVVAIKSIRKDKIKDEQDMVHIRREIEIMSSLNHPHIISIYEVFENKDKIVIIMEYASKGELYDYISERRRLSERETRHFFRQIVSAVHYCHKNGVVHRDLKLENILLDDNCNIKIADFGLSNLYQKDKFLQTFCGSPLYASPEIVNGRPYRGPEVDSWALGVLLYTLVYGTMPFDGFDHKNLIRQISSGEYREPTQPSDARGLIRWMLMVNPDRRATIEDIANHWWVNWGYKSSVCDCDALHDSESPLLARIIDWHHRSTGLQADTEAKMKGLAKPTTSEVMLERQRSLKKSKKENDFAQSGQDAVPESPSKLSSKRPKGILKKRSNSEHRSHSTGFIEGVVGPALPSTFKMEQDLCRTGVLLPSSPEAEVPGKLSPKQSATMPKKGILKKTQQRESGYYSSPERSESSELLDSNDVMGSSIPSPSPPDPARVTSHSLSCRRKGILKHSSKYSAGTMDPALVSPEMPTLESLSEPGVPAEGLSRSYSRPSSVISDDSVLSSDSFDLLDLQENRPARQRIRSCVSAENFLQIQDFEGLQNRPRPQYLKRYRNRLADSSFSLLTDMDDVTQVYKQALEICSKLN
As to the kind of experiment: TR-FRET LanthaScreen Eu Kinase Binding Assay, NUAK1 (Example 72). To be noted: Example 72 text; read-out: IC50, Inhibitory Activity Toward NUAK1. The protocol:
as §1, §2, §3

T1 sequence (Q5S007 1879-2138 limits assumed): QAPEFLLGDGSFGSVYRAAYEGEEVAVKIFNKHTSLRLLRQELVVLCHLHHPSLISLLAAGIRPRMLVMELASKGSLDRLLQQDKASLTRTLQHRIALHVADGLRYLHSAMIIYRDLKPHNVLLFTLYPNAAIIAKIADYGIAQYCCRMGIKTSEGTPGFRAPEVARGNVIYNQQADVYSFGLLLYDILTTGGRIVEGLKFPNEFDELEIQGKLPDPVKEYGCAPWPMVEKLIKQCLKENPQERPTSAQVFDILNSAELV
T2 sequence (Q5S007 1879-2138 G2019S limits assumed): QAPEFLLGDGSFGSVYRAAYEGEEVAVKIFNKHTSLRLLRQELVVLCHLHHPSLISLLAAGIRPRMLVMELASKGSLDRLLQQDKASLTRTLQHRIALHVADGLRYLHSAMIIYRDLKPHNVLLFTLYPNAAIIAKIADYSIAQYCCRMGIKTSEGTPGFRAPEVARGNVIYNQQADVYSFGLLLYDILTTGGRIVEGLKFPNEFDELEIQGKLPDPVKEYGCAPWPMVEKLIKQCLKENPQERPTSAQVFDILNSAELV

For `Fc1cccc(F)c1C1=Nc2cn[nH]c2-c2cncc3ncn1c23` [Compound 303, 3-(2,6-difluorophenyl)-7H-1,2a,4,6,7,9-hexaazabenzo[cd]cyclopenta[f]azulene], the half-inhibitory concentration (IC50) in assay [1] was in the range of 0.1 to 1 µM; in assay [2], 0.1 to 1 µM; in assay [3], 0.1 to 1 µM; in assay [4], 0.01 to 0.1 µM.

By IC50 is commonly meant the concentration at which inhibition is half-maximal.

Values taken from patent US20240067655A1 (NEURON23, INC., priority 2020, published 2024).
